Source: article PMC5473336 (Journal of medicinal chemistry, 2016)
Entries after “also recorded” stand apart in the source; their conditions may differ.

Tests used:
293-DR-GFP cells = experiment: DR-GFP assay of cellular HR activity; type: cell-based, human; conditions: 24 h, relative to 1 and 8
RAD51 [1] = target: T1, RAD51 (Homo sapiens, UniProt Q06609); experiment: Fluorescence polarization-based RAD51-DNA binding assay; conditions: for ssDNA binding IC50: Stim: compound is a stimulator
T1 sequence (Q06609 1-339): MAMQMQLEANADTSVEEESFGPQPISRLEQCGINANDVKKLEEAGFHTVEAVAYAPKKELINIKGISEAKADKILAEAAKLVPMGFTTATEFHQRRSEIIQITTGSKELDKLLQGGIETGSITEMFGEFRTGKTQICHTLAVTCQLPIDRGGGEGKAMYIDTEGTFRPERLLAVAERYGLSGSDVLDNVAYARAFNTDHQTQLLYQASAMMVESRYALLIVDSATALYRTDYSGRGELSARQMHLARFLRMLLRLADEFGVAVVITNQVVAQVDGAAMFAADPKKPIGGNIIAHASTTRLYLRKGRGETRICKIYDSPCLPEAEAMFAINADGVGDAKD

RAD51 [2] = target: T1, RAD51; experiment: Gel-based D-loop assay; type: biochemical
[3] = Stability on exposure to air; type: physicochemical; conditions: room temperature; oxidizes to compound 8
293-SA-GFP cells = conditions: previously demonstrated; cited from earlier work

## Nc1ccc(-c2nc3cc(O)ccc3n3cccc23)cc1 [Compound 12f, 4-(4-Aminophenyl)pyrrolo[1,2-a]quinoxalin-7-ol]
293-DR-GFP cells
  inhibitory activity in cell-based HR assay (in words): comparable or slightly less inhibitory activity
RAD51 [1]
  influence on RAD51-ssDNA binding (in words): modest effects

## COc1ccc2c(c1)nc(-c1ccc(O)cc1)c1cccn12 [Compound 12a, 4-(7-Methoxypyrrolo[1,2-a]quinoxalin-4-yl)phenol]
RAD51 [1]
  influence on RAD51-ssDNA binding (in words): relatively strong ssDNA binding inhibition

## C1=C(c2nc3ccccc3n3cccc23)CCCC1 [Compound 11c, 4-(Cyclohex-1-en-1-yl)pyrrolo[1,2-a]quinoxaline]
RAD51 [2]
  D-loop inhibitory activity (in words): weak
RAD51 [1]
  influence on RAD51-ssDNA binding (in words): modest influence
  ssDNA binding IC50: Stim

## CN(C)c1ccc(-c2nc3cc(OC(C)(C)C(N)=O)ccc3n3cccc23)cc1 [Compound 16, 2-((4-(4-(Dimethylamino)phenyl)pyrrolo[1,2-a]quinoxalin-7-yl)-oxy)-2-methylpropanamide]
RAD51 [1]
  influence on RAD51-ssDNA binding (in words): stimulators
  ssDNA binding IC50: Stim

## c1ccc2c(c1)nc(-c1ccncc1)c1cccn12 [Compound 11b, 4-(Pyridin-4-yl)pyrrolo[1,2-a]quinoxaline]
RAD51 [2]
  D-loop inhibitory activity (in words): moderate

## c1ccc2c(-c3nc4ccccc4n4cccc34)cccc2c1 [Compound 11d, 4-(Naphthalen-1-yl)pyrrolo[1,2-a]quinoxaline]
RAD51 [2]
  D-loop inhibitory activity (in words): weak
RAD51 [1]
  influence on RAD51-ssDNA binding (in words): modest influence
  ssDNA binding IC50: Stim

## FC(F)(F)Oc1ccc(-c2nc3ccccc3n3cccc23)cc1 [Compound 9e, 4-(4-(Trifluoromethoxy)phenyl)pyrrolo[1,2-a]quinoxaline]
RAD51 [2]
  D-loop inhibitory activity (in words): significantly decreased
RAD51 [1]
  ssDNA binding IC50: Stim

## Nc1cccc(-c2nc3ccccc3n3cccc23)c1 [Compound 9c, 3-(Pyrrolo[1,2-a]quinoxalin-4-yl)aniline]
RAD51 [2]
  D-loop inhibitory activity (in words): decreased

## Nc1ccc(-c2nc3cc(OCCF)ccc3n3cccc23)cc1 [Compound 15b, 4-(7-(2-Fluoroethoxy)pyrrolo[1,2-a]quinoxalin-4-yl)aniline]
RAD51 [1]
  influence on RAD51-ssDNA binding (in words): stimulators; also recorded: modest effects
  ssDNA binding IC50: Stim

## COc1ccc2c(c1)NC(c1ccc(N(C)C)cc1)c1cccn1-2 (racemic) [Compound 7, 4-(7-Methoxy-4,5-dihydropyrrolo[1,2-a][13]quinoxalin-4-yl)-N,N-dimethylaniline]
293-DR-GFP cells
  inhibitory activity in cell-based HR assay (in words): comparable to that of 1 and 8
RAD51 [1]
  influence on RAD51-ssDNA binding (in words): significant stimulatory activity
  ssDNA binding IC50: Stim
RAD51 [1]; read-out: ssDNA binding max effect, ↑ compound stimulates RAD51-ssDNA binding
  Emax: 47 ± 33%
[3]
  stability when exposed to air (in words): not stable

## CN(C)c1ccc(-c2nc3ccccc3n3cccc23)cc1 [Compound 9a, N,N-Dimethyl-4-(pyrrolo[1,2-a]quinoxalin-4-yl)aniline]
RAD51 [2]
  D-loop inhibitory activity (in words): allow for D-loop inhibition
RAD51 [1]
  influence on RAD51-ssDNA binding (in words): modest influence
  ssDNA binding IC50: Stim

## COc1ccc2c(c1)nc(-c1ccc([N+](=O)[O-])cc1)c1cccn12 [Compound 12b, 7-Methoxy-4-(4-nitrophenyl)pyrrolo[1,2-a]quinoxaline]
RAD51 [1]
  influence on RAD51-ssDNA binding (in words): stimulators
  ssDNA binding IC50: Stim

## Oc1ccc2c(c1)nc(-c1cccnc1)c1cccn12 [Compound 13b, 4-(Pyridin-3-yl)pyrrolo[1,2-a]quinoxalin-7-ol]
RAD51 [2]
  D-loop inhibitory activity (in words): slight improvement

## O=[N+]([O-])c1ccc(-c2nc3ccccc3n3cccc23)cc1 [Compound 9f, 4-(4-Nitrophenyl)pyrrolo[1,2-a]quinoxaline]
RAD51 [2]
  D-loop inhibitory activity (in words): significantly decreased

## COc1ccc2c(c1)nc(-c1cccnc1)c1cccn12 [Compound 13a, 7-Methoxy-4-(pyridin-3-yl)pyrrolo[1,2-a]quinoxaline]
RAD51 [2]
  D-loop inhibitory activity (in words): slight improvement

## Nc1ccc(-c2nc3ccccc3n3cccc23)cc1 [Compound 9g, 4-(Pyrrolo[1,2-a]quinoxalin-4-yl)aniline]
RAD51 [2]
  D-loop inhibitory activity (in words): allow for D-loop inhibition

## O=C1C(Cl)=C(N2CCOCC2)C(=O)N1c1ccc(Cl)c(Cl)c1 [RI-1]
293-SA-GFP cells
  effect on SSA activity (in words): elevated levels of SSA activity

## CN(C)c1ccc(-c2nc3cc(F)c(F)cc3n3cccc23)cc1 [Compound 12m, 4-(7,8-Difluoropyrrolo[1,2-a]quinoxalin-4-yl)-N,N-dimethylaniline]
RAD51 [2]
  D-loop inhibitory activity (in words): nearly absent
RAD51 [1]
  ssDNA binding IC50: Stim

## CN(C)c1ccc(-c2nc3cc(F)ccc3n3cccc23)cc1 [Compound 12j, 4-(7-Fluoropyrrolo[1,2-a]quinoxalin-4-yl)-N,N-dimethylaniline]
RAD51 [2]
  D-loop inhibitory activity (in words): nearly absent
RAD51 [1]
  ssDNA binding IC50: Stim

## c1cncc(-c2nc3ccccc3n3cccc23)c1 [Compound 11a, 4-(Pyridin-3-yl)pyrrolo[1,2-a]quinoxaline]
RAD51 [2]
  D-loop inhibitory activity (in words): moderate

## c1ccc2c(c1)nc(-c1ccc(N3CCOCC3)cc1)c1cccn12 [Compound 9j, 4-(4-(Pyrrolo[1,2-a]quinoxalin-4-yl)phenyl)morpholine]
RAD51 [2]
  D-loop inhibitory activity (in words): allow for D-loop inhibition

## COc1ccc2c(c1)nc(-c1ccc(N(C)C)cc1)c1cccn12 [Compound 8, 4-(7-Methoxypyrrolo[1,2-a]quinoxalin-4-yl)-N,N-dimethylaniline]
RAD51 [1]
  ssDNA binding IC50: Stim

## COc1ccc2c(c1)nc(-c1ccc(N)cc1)c1cccn12 [Compound 12c, 4-(7-Methoxypyrrolo[1,2-a]quinoxalin-4-yl)aniline]
RAD51 [1]
  influence on RAD51-ssDNA binding (in words): only weakly influenced

## CCCOc1ccc2c(c1)nc(-c1ccc(N)cc1)c1cccn12 [Compound 15a, 4-(7-Propoxypyrrolo[1,2-a]quinoxalin-4-yl)aniline]
RAD51 [1]
  influence on RAD51-ssDNA binding (in words): stimulators
  ssDNA binding IC50: Stim

## Oc1ccc(-c2nc3ccccc3n3cccc23)cc1 [Compound 9d, 4-(Pyrrolo[1,2-a]quinoxalin-4-yl)phenol]
RAD51 [2]
  D-loop inhibitory activity (in words): significantly decreased

## CN(C)c1ccc(-c2nc3cc(O)ccc3n3cccc23)cc1 [Compound 12g, 4-(4-(Dimethylamino)phenyl)pyrrolo[1,2-a]quinoxalin-7-ol]
293-DR-GFP cells
  inhibitory activity in cell-based HR assay (in words): comparable or slightly less inhibitory activity
RAD51 [1]
  influence on RAD51-ssDNA binding (in words): only weakly influenced
  ssDNA binding IC50: Stim

## c1ccc2c(c1)nc(-c1ccc(N3CCCC3)cc1)c1cccn12 [Compound 9i, 4-(4-(Pyrrolidin-1-yl)phenyl)pyrrolo[1,2-a]quinoxaline]
RAD51 [2]
  D-loop inhibitory activity (in words): significantly decreased
RAD51 [1]
  influence on RAD51-ssDNA binding (in words): modest influence
  ssDNA binding IC50: Stim

## O=[N+]([O-])c1cccc(-c2nc3ccccc3n3cccc23)c1 [Compound 9b, 4-(3-Nitrophenyl)pyrrolo[1,2-a]quinoxaline]
RAD51 [1]
  influence on RAD51-ssDNA binding (in words): modest influence
